Here are results for one compound from US20200207835A1, “SRCP1-BASED THERAPY FOR DISEASES ASSOCIATED WITH PROTEIN AGGREGATION” (THE MEDICAL COLLEGE OF WISCONSIN, INC., priority 2017, published 2020).

One experiment deals with ATG8. The experiment in a line: Western blot for ATG8 after Hsp70 inhibition in Dictyostelium. The class given is cell-based, Dictyostelium discoideum. Conditions: 80 μM Ver155008, 24 hours. As to the method: For Hsp70 inhibition, 1×10^7 cells were incubated either with DMSO or 80 μM VER155008 (ApexBio) for 24 hours. Following treatments, cells were imaged and/or harvested by spinning at 500 g at room temperature for 5 minutes. Cell pellets were washed three times with 1×PBS and lysed with ice-cold NETN (with protease inhibitor). Lysates were then sonicated twice for 10-15 seconds. To verify inhibition, samples were run on SDS-PAGE and analyzed by western blot for ATG8. Following sonication, lysates were subjected to BCA protein assay (ThermoFisher Scientific) and prepared for loading by the addition of 4× laemmli buffer and boiling for four minutes. Samples then loaded on SDS-polyacrylamide gels, ran at 175 V, and transferred onto an Immuno-blot PVDF membrane (Biorad) overnight at 30 V. Membranes were blocked in 5% milk in TBS with 0.1% Tween (TBST) and incubated in primary antibody overnight at 4° C. Following primary, membranes were washed for 10 minutes at room temperature three times with TBST and incubated in secondary for an hour at room temperature. Membranes were then washed for 10 minutes at room temperature three times with TBST and then incubated in buffer for enhanced chemiluminescence (50 mM Na2HPO4; 50 mM Na2CO3; 10 mM NaBO3.4H2O; 250 mM luminol; 90 mM coumaric acid).

The next experiment relates to ^GFPHtt^ex1Q103. Type of experiment: cell-based, Dictyostelium discoideum. Conditions: 80 μM VER-155008, 24 hours, Dictyostelium. The protocol:
For proteasome inhibition, 5×10^6 cells were incubated with either DMSO or 100 μM MG132 (Sigma-Aldrich) for 18 hours. Following treatment, cells were imaged and/or harvested by spinning at 500 g at room temperature for 5 minutes. Cell pellets were washed three times with 1×PBS and lysed with ice-cold NETN (with protease inhibitor). Lysates were then sonicated twice for 10-15 seconds. To verify inhibition, samples were run on SDS-PAGE and analyzed by western blot for ubiquitin.
For Hsp70 inhibition, 1×10^7 cells were incubated either with DMSO or 80 μM VER155008 (ApexBio) for 24 hours. Following treatments, cells were imaged and/or harvested by spinning at 500 g at room temperature for 5 minutes. Cell pellets were washed three times with 1×PBS and lysed with ice-cold NETN (with protease inhibitor). Lysates were then sonicated twice for 10-15 seconds. To verify inhibition, samples were run on SDS-PAGE and analyzed by western blot for ATG8.
For Dictyostelium cells, 1×10^7 cells were washed three times with ice-cold starvation buffer and then imaged with a 20× objective using the Evos FL Auto Imaging System.

SMILES strings stand for the structures.

In the case of `N#Cc1ccc(COC[C@H]2O[C@@H](n3c(NCc4ccc(Cl)c(Cl)c4)nc4c(N)ncnc43)[C@H](O)[C@@H]2O)cc1` [VER-155008], the ATG8 protein levels entry in the experiment with ATG8 is “leads to an increase of ATG8 proteins levels”. Besides, in the experiment on ^GFPHtt^ex1Q103, the “accumulation of aggregated GFPHttex1Q103” value was “does not lead to accumulation of aggregated”.
